According to patent publication US12371432B2, “Haloallylamine compounds and application thereof” (TransThera Sciences (Nanjing), Inc., priority 2019, dated 2025):
Structures can show the parent of a compound that is named as a salt.

Target: T1, rhVAP-1 (Homo sapiens, UniProt Q16853)
T1 construct: purchased PeproTech
T1 sequence (Q16853 27-763 limits assumed): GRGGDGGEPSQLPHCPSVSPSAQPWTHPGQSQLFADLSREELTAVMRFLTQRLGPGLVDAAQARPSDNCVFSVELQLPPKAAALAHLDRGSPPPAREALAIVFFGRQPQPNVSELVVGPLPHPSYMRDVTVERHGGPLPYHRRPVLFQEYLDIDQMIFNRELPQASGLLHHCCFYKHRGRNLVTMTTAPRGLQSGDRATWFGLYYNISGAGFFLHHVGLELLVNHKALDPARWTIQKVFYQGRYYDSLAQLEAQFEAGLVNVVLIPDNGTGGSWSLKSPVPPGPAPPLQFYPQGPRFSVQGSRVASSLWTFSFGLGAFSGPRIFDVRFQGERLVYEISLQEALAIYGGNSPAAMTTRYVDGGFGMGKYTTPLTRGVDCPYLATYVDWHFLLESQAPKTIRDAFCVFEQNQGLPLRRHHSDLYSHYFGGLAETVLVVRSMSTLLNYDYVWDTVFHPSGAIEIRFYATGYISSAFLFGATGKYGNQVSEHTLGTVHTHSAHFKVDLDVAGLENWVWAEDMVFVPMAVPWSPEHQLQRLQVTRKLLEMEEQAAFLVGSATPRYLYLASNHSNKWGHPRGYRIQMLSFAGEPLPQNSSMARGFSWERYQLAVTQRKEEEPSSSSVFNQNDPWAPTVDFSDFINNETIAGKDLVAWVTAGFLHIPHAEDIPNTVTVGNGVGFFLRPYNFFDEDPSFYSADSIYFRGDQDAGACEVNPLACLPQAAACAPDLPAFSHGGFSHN
Assay: Inhibitory activity against rhVAP-1 enzyme (Biological Example 1)
Format: biochemical
Details: Table 1; benzylamine substrate, Amplex Red/HRP
Description: 1. Inhibitory Activity of Compounds Against rhVAP-1 Enzyme
(1) Instrument, Consumable and Reagent
Multifunctional microplate reader (MD, FlexStation3), black unclear-bottom 96-well plate (Corning), and rhVAP-1 (PeproTech)
(2) Preparation of Concentration Gradient Compound Solutions
An appropriate amount of the compound to be tested was taken, dissolved in DMSO to 10 mM and then stored. Before the study, an appropriate amount of mother liquor of the 10 mM compound to be tested was diluted with DMSO, so that 1 mM solution was obtained. The solution was then gradiently diluted 3-fold with DMSO, 10 concentration gradients in total. PBS was then used to carry out 100-fold dilution, so that compound solutions of 10× series of concentrations were prepared.
(3) Preparation of Enzyme Solutions
An appropriate amount of protein diluent was added into rhVAP-1 powder, obtaining 1 mg/mL of mother liquor for storage. Before the study, PBS was used to carry out dilution to obtain enzyme solutions of 4× concentrations.
(4) Preparation of Substrate Mixtures of 2× Concentrations
An appropriate amount of benzylamine was weighed and dissolved with PBS to obtain 200 mM of benzylamine solution. The benzylamine solution was added with 2 mM of Amplex Red mother liquor and 500 U/mL of HRP mother liquor and diluted with PBS to obtain substrate mixtures of 2× concentrations.
10 μL compound solutions of different concentrations, 25 μL rhVAP-1 enzyme solutions of 4× concentrations and 15 μL of PBS were first added into a 96-well plate, shaken to be mixed uniformly and then incubated at 37° C. for 30 min. 50 μL substrate mixtures of 2× concentrations were then added into each well, and the microplate reader was immediately used to detect fluorescence intensity of each well with 565 nm exciting light and 590 nm emission light for 5 min each time, 25 min in total. […]
V: fluorescence change rate; Ft: fluorescence reading at time point t; F0: initial fluorescence reading; Time: duration t; Vcmpd: fluorescence change rate of tested compound; Vmax: Max hole fluorescence change rate. […]

Row | IC50 [nM] | Structure (SMILES)
1 | 38 | NC/C(=C\F)Cn1cc2c(n1)CCN(C1CC1)C2=O [Compound A1, (E)-2-(2-(aminomethyl)-3-fluoroallyl)-5-cyclopropyl-2,5,6,7-tetrahydro-4H-pyrazolo[4,3-c]pyridin-4-one]
2 | 73 | NC/C(=C\F)Cn1ncc2c1CCN(C1CC1)C2=O [Compound A2 hydrochloride, (E)-1-(2-(aminomethyl)-3-fluoroallyl)-5-cyclopropyl-1,5,6,7-tetrahydro-4H-pyrazolo[4,3-c]pyridin-4-one]
